# Patent US6759385B1, “Methods to treat undesirable immune responses” (Regents of the University of Minnesota, priority 1997, dated 2004)
# Legend:
# [1] = tested on: EMG in IL-4 KO mice immunized with TAChR; assay: Transfer of CD4+ cells from peptide-treated B6 mice into IL-4 KO mice, EMG; assay type: in vivo, mouse; settings: cells three times, three TAChR immunizations, 14 weeks
# Procedure: CD4^+ cells from wild type B6 mice that sniffed TACBR CD4^+ epitopes protect IL-4 KO R6 mice from development of EMG. Spleen CD4^+ cells were purified from wild type B6 mice that had sniffed a pool of the AChR a subunit peptide epitopes α50-169, α81-200 and α361-380, or peptide-free PBS (sham-treated). 10×10^6 CD4^+ cells from peptide-treated or sham-treated B6 mice to IL-4 KO B6 mice were administered i.v. (blue arrowhead in FIG. 25), just prior to a single immunization with TAChR (red arrowhead in FIG. 25). The strength of the mice was measured every 2 weeks, for 20 weeks after the TAChR immunization (FIG. 25). […] The lesser frequency of EMG as compared to the experiments described above is likely due to the use of a single immunizing injection of TAChR, or to variability in the susceptibility to EMG in different batch of IL-4 KO mice, similar to that described in other mouse strains.
# All IL-4 KO mice treated with CD4^+ cells from sham-treated B6 donors developed EMG from week four onwards (FIG. 26). […] By week 10 (i.e., two weeks after the second TAChR immunization). […]
# [2] = tested on: CD8+ depleted spleen cells; assay: Cytokine secretion in response to TAChR by CD8+ depleted spleen cells (Example IV); assay type: cell-based, mouse; settings: s.c. 200 μg/injection, 72 hours
# Procedure: Cytokine secretion in response to TAChR by spleen CD4^+ cells in vitro. Five to seven days after the last immunization, spleen cells of three identically treated mice were pooled, and depleted them of CD8^+ cells using paramagnetic beads and rat anti-mouse CD8^+ Ab (Pharmingen, San Diego, Calif.), following the manufacturer's instructions. The CD8^+ depleted, CD4^+ enriched cells were cultured with 10 μg/ml TAChR, or without any stimulus. 24 well plates were used, and duplicate cultures prepared. The supernatants were harvested after 72 hours, and the concentrations of IFN-γ, IL-4 and IL-10 determined in duplicate samples by capture ELISA using anti-INF-γ, anti-IL-4, anti-IL-10 Ab, and recombinant INF-γ, IL-4 and IL-10 (Pharmingen) as standards, and following the manufacturer's instructions.
# [3] = tested on: EMG in B6 mice immunized with TAChR; assay: Nasal tolerization, EMG symptoms by pancuronium-sensitized inverted hang test (Example I); assay type: in vivo, mouse
# Procedure: Mice and Induction of Tolerance. B6 mice were purchased from Jackson Laboratory (Bar Harbor, Me.) and housed at the animal facility of the University of Minnesota. After light anesthesia by i.m. injection of Ketaset (100 mg/kg; Alveco Co., Inc., Fort Dodge, Iowa), the mice received into both nostrils a total of 25 μl of PBS containing 50 μg of peptide Tα150-169, either alone or pooled with equimolar amounts of peptides Tα180-200 and Tα360-378 (referred to as “peptide pool” or “αpool” ). The dose was based on the results of an experiment in which increasing amounts of peptide α150-169 were used (50 μg, 100 μg, 200 μg, 400 μg and 800 μg). […] The tolerogen was administered as a solution instilled into the nostrils, a method of delivery which allowed accurate administration of a defined amount of solution.
# In protocol A, peptides or peptide-free PBS were administered two weeks before the first TAChR immunization, and then three more times, on the same day as the three immunizations with TAChR (at one month intervals, see below). In protocol B, peptides or peptide-free PBS were administered weekly, starting two weeks before beginning of the immunization with TAChR, for a total of 14 treatments (two before and 12 during TAChR immunization).
# Immunization. Eight-ten week old mice were immunized by subcutaneous injections, along the back and at the base of the tail, with solubilized TAChR (50 μg), peptide Tα150-169 (100 μg), or the peptide pool (100 μg of each peptide). The mice were boosted twice at 4 week intervals with the same amouni of antigen. The antigen solutions (in 100 μl PBS) were emulsified with an equal volume of complete Freund's adjuvant (FA) for the first injection, and with incomplete FA for the boosts. Control mice were injected with PBS emulsified in the appropriate adjuvant.
# Evaluation of the Clinical Symptoms of EMG. EMG symptoms were quantified by a forced exercise using the inverted hang technique, sensitized by administration of a minute amount of pancuronium bromide (0-03 mg/kg i.p.) just prior to the beginning of the test (Karachunski et al., 1995). The mice hang from a grid, and the time it takes for the mouse to release its hold and fall three times (“holding time”) was measured. The test was performed on the day of the first nasal administration, on the day before each immunization, and 7-14 days after the third immunization, just before sacrificing the animal. This test is parametric, and gives a quantitative assessment of the severity of the weakness.
# The holding time of normal mice was 10.4±2.1 minutes (n=99). […]
substance,measurement,setting,value
"peptide Tα150-169: synthetic peptide corresponding to residues 150-169 of the TAChR α subunit (TYDGTKVSISPESDRPDLST; UniProt P02710 174-193, looked up, fragment)",recipients that developed EMG,[1],Only one mouse
same,TAChR-induced IFN-γ secretion,[2],did not cause increased
same,TAChR-induced IL-4 secretion,[2],significant increase
same,TAChR-induced IL-10 secretion,[2],in one of the two cultures tested
same,mice that developed EMG,"[3]; nasal protocol A (monthly), TAChR-immunized B6 mice",42%
same,mice with detectable weakness,"[3]; nasal protocol B (weekly), TAChR-immunized B6 mice",none
same,"protection from EMG, dose finding","[3]; nasal, lowest dose 50 μg of 50-800 μg",satisfactory level of protection
same,holding time compared with sham-tolerized mice,"[3]; nasal, protocols A and B",significantly longer holding times
